The text below walks through data of patent publication US20140154735A1, “TUMOUR CELL AND TISSUE CULTURE” (CAPSANT NEUROTECHNOLOGIES LTD., priority 2011, published 2014).

One assay concerns LN18-eGFP clusters. Kind of assay: 5-ALA staining of GBM(LN18-eGFP)/brain co-cultures. The assay is classed as cell-based, human. Conditions: 100 μg/ml, 24 hours. An excerpt:
5-aminolevulinic acid (5-ALA) can be used to visualize tumourous tissue during neurosurgical procedures. The intraoperative use of this guiding method may reduce the tumour residual volume and prolong progression-free survival in patients suffering from brain tumours. GBM(LN18-eGFP)/brain co-cultures as prepared in Example 4 were stained with 5-ALA to see whether, as in human tumours, 5-ALA could specifically stain the tumour cells.
Aminolevulinic acid hydrochloride (ALA) (Sigma product number A3785) was solubilised in water to 10 mg/ml. For incubation with the cultures, it was diluted in the medium in the well to give a final concentration of 100 μg/ml and incubated with the cultures for 24 hours. The cultures were then examined microscopically using the CARV confocal system described for immunohistological analysis.

Assay [1] has as its system LN-18 cells. Put plainly: 2D monolayer culture of LN-18-GFP tumour cells alone, fluorescence growth readout. It counts as cell-based, human. Conditions: for IC50: Homo sapiens, LN-18, 2D culture, growth inhibition. As to the method: (§1) Human glioblastoma tumour cell lines, LN-18 (ATCC #CRL2610) were cultured and were transfected with either green fluorescent protein (GFP) expressing plasmids or red fluorescent protein (RFP) expressing plasmids. Cells were cultured and plated onto 6 well plates, at 1×10^5 cells per well, grown overnight and checked to see ˜75% confluence. The cells were transfected with pEGFP-N3 (BD Biosciences cat no #6080-1) using Gene Juice (Novagen cat no #70967-EA) as per manufacturer's protocols. 24 hours after transfection, the cells were selected with Geneticin (GIBCO cat no #10131-019), a population of selected cells were used in the experiments. A population of selected cells were cultured over prolonged periods of time with occasional selection to maintain a population of transfected cells. The expression of fluorescent proteins by the tumour cells allows monitoring of the tumour cells for proliferation and morphological changes. The transfected tumour cells (LN-18) were treated with trypsin/EDTA (sigma#T4299) to remove them from the flask, resuspended in culture media, The viable cells were counted using trypan blue exclusion The suspension was centrifuged at 1000 rpm/3 minutes and the resultant cell pellet resuspended to 50,000 cells/μl.
(§2) For the monolayer cultures of tumour cells alone (2D) LN-18_GFP cells were plated into 24 well plates at a concentration of 10^4 cells per well and after 2 hours treated with the same concentrations of TMZ as the organotypic co-cultures. Control organotypic co-cultures and 2D cultures were also monitored to compare normal growth of the tumour cells with that after addition of the TMZ. For analysis of fluorescence, images were taken on a Leica DM1L microscope using Leica application suite software. The images collected were analyzed using the BD IPLAB imaging software and the data analysed using Graphpad Prism5 software. The error bars are the standard error of the mean (SEM). 24 images were used for each data point.

Assay [2] relates to LN-18 cells. Put plainly: 3D organotypic co-culture of LN-18-GFP tumour cells in rat brain cell matrix, treated at seeding. It counts as cell-based, human. Here is the method: as §1
The organotypic cultures were produced by preparing dissociated cells from isolated rat cortex. P0 Wistar rats were sacrificed and the brains removed. The cortices were dissected into a Petri dish and chopped into small pieces and put into cold EBSS (GIBCO cat no #24010). The tissue pieces were then triturated very gently. The resultant cell suspension was filtered through a 100 μm mesh filter fitting into a 50 ml falcon tube. The suspension was centrifuged at 1000 rpm/3 minutes. The viable cells were counted using Trypan blue exclusion and the cell pellet resuspended to 50,000 cells/μl.
The transfected tumour cells and the rat primary cells prepared as explained in Examples 1 and 2 were mixed together to form a suspension of cells at 50,000 cells/μl.
5 μL of this mixed cell suspension was added to the top of a 0.4 micron Millipore culture insert (Millipore cat no # PICM0350) placed in lml cortical media (10% Hams F12, 20% FCS, 5% horse serum, 10 mM Hepes, 2 mM glutamine in DMEM) in a 6 well plate (NUNC). The plate was then incubated at 37° C. with 5% CO2 (FIG. 1A). During the first hours of this incubation the cells compact to form a denser culture by the removal of the liquid from the 5 μl cell suspension through capillary action via the semi-permeable membrane support (FIG. 1A).
Using these optimisation experiments the cells were mixed in the proportions of 95% rat brain cells and 5% LN-18 tumour cells both resuspended at 50,000 cells per μl.
(§3) Organotypic co-cultures were prepared as previously described. 2 hours after preparation, TMZ was added into the culture medium at various concentrations—see FIG. 6. The cultures are incubated in the culture medium+TMZ for up to 14 days with the compound being renewed as the media was changed. This allowed for monitoring of the effect of the TMZ over time.
as §2

For assay [3], the system named is GL-15. Put plainly: 2D culture of GL-15 glioblastoma cells, growth inhibition. The assay is classed as cell-based. Conditions: GL-15, 2D culture. Here is the method: as §2
(§4) Similarly to what has been observed with LN-18 cells, efficacy of Temozolomide was increased from 2.5 to 12 fold in brain-co-cultures. Thus, the co-cultures of the invention reflect the clinical situation more closely than 2D cultures for various glioblastoma cell lines.

Assay [4] has as its system GL-15. Put plainly: 3D co-culture of GL-15 glioblastoma cells with brain cell matrix, growth inhibition. It counts as cell-based. Conditions: GL-15, 3D co-culture with brain cell matrix. Here is the method: (§5) Each of these cell lines was eGFP-labeled and mixed with rat brain cells to form 3D organotypic co-cultures. As indicated by the eGFP signal, all brain-derived tumour cell lines grew and formed clusters of tumour cells within the co-cultures (FIGS. 3B, C and D) in a very similar way as LN18 cells.
as §3, §4

Assay [5] concerns A172. Put plainly: 2D culture of A172 glioblastoma cells, growth inhibition. It counts as cell-based. The note with it: Homo sapiens, A172, 2D culture. Here is the method:
as §2, §4

Assay [6] has as its system A172. Put plainly: 3D co-culture of A172 glioblastoma cells with brain cell matrix, growth inhibition. The assay is classed as cell-based. Conditions: Homo sapiens, A172, 3D co-culture with brain cell matrix. As to the method: as §5, §3, §4
In assay [7] the test system is U87. Kind of assay: 2D culture of U87 glioblastoma cells, growth inhibition. The assay is classed as cell-based. Conditions: Homo sapiens, U-87 MG; U87, 2D culture; read-out: IC50 TMZ 2D.
The subject of assay [8] is U87. Kind of assay: 3D co-culture of U87 glioblastoma cells with brain cell matrix, growth inhibition. The assay is classed as cell-based. The note with it: Homo sapiens, U-87 MG, U87, 3D co-culture with brain cell matrix. As to the method: as §5, §3, §4
The test system of assay [9] is established glioblastoma tumour cell clusters in GBM/brain co-cultures. Kind of assay: Tumour regression in established GBM/brain co-cultures, treatment started three days after seeding. The assay is classed as cell-based. An excerpt:
Chemotherapies are given to patients with established tumours and are poorly effective.
Thus, also in terms of tumour regression, the properties of the co-cultures of the invention are representative of the clinical situation.

On to `NCC(=O)CCC(=O)O` [5-ALA, 5-aminolevulinic acid], for which the entries for the “staining of tumour cell clusters” value with LN18-eGFP clusters (clusters of more than about 100 μm in diameter) and in the assay on LN18-eGFP clusters (clusters smaller than about 100 μm in diameter) were “strong specific 5-ALA staining” and “stained more weakly”, respectively.
For the compound `Nc1ccn([C@@H]2O[C@H](CO)[C@@H](O)[C@@H]2O)c(=O)n1` [Ara-C, Cytosine arabinoside], in the assay on LN-18 cells [1] (2D cultures), the “concentration showing growth inhibition (anti-proliferative activity)” value stood at 100 nM. For the same compound, in the assay with LN-18 cells [2] (3D versus 2D), the “dose needed in 3D co-cultures relative to dose necessary in 2D cultures” value is on record as “ten times”. Besides, the “concentration required to reduce tumour cell proliferation” value with LN-18 cells [2] (GBM/Brain co-cultures (3D)) worked out at 1 µM. The “effect on GBM cells” value in the assay with LN-18 cells [2] (GBM/Brain co-cultures (3D), 10 μM) is “effectively killed”.
`Cn1nnc2c(C(N)=O)ncn2c1=O` [TMZ, Temozolomide]: the IC50 is over 10000 nM in the assay with LN-18 cells [1] (read-out: IC50 TMZ 2D); under 5 µM in the assay on LN-18 cells [2] (Homo sapiens, LN-18, LN-18, 3D co-culture with rat brain cells, growth inhibition, read-out: IC50 TMZ 3D); about 4 µM with LN-18 cells [2] (LN-18, 3D co-culture with rat brain cells, growth inhibition, read-out: IC50 TMZ 3D); over 50000 nM in the assay with GL-15 [3] (read-out: IC50 TMZ 2D); about 20 µM with GL-15 [4] (read-out: IC50 TMZ 3D); about 25 µM with A172 [5] (A 172, read-out: IC50 TMZ 2D). Also, the IC50 in the assay with A172 [6] (A 172, read-out: IC50 TMZ 3D) was about 5000 nM; in the assay with U87 [7], about 12 µM; in the assay on U87 [8] (read-out: IC50 TMZ 3D), about 1000 nM.
On to `CC(=O)O[C@H]1C(=O)[C@@]2(C)[C@H]([C@H](OC(=O)c3ccccc3)[C@]3(O)C[C@H](OC(=O)[C@H](O)[C@@H](NC(=O)c4ccccc4)c4ccccc4)C(C)=C1C3(C)C)[C@]1(OC(C)=O)CO[C@@H]1C[C@@H]2O` [Taxol, Paclitaxel], for which the “effect on tumour cell number” value in the assay on LN-18 cells [1] (2D, Taxol 20 nM) is reported as “reduction in cell number to almost zero”. For the same compound, the “effect on tumour cell number (average % fluorescence)” value with LN-18 cells [1] (2D, taxol 5 nM) is listed as “small but significant reduction in cell number”; in the assay with LN-18 cells [1] (2D, taxol 20 and 50 nM) it was “no increase in cell number”. For the same compound, the IC50 is about 7 nM in the assay on LN-18 cells [1] (read-out: IC50 Taxol 2D); about 0.025 µM in the assay with LN-18 cells [2] (Homo sapiens, LN-18, read-out: IC50 Taxol 3D, LN-18, 3D co-culture with rat brain cells, growth inhibition); about 4 nM in the assay with GL-15 [3] (read-out: IC50 Taxol 2D); 0.1 µM in the assay with GL-15 [4] (read-out: IC50 Taxol 3D); about 0.007 µM in the assay with A172 [5] (A 172, read-out: IC50 Taxol 2D); about 50 nM in the assay on A172 [6] (A 172, read-out: IC50 Taxol 3D). The IC50 with U87 [8] (read-out: IC50 Taxol 3D) was about 60 nM. For the same compound, the “effect on tumour cell growth” value with LN-18 cells [2] (3D, taxol 25 nM, treatment started at seeding) is given as “cell growth was stopped”. The “effect on cell growth versus control cultures (average % fluorescence)” value in the assay with LN-18 cells [2] (3D, taxol 25, 50 and 100 nM) is recorded as “significant reduction in cell growth”. For the same compound, the “concentration required to achieve tumour clusters shrinkage” value with LN-18 cells [2] (3D, treatment started at seeding) worked out at 100 nM. Further, the “effect on fluorescence intensity of established tumour cell clusters” value in assay [9] (taxol 25 nM) was “no effect”; in [9] (taxol 100 nM and 50 nM), “marginal effects”.
